Measurements: PubChem BioAssay AID248 (DTP/NCI, 2004)
Where “and” joins values, the source holds several entries; their conditions need not be identical. Equal values may be shown once. Toxic doses and inconclusive results are not listed. Rule as the data show it: active = T/C of 150% or more; inactive = T/C below 125%.

Tested on: L1210 leukemia ip in BDF1 mice, survival T/C
Assay: NCI In Vivo Anticancer Drug Screen. Data for tumor model L1210 Leukemia (intraperitoneal) in B6D2F1 (BDF1) mice
Details: endpoint: mean survival time, higher = longer survival
Procedure, shortened: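 Antitumor effect is assessed in tumor-bearing animals. Survival in the compound arm is compared with a vehicle-dosed control arm and expressed as their quotient.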

[1] = dose: 100.0 mg/kg/injection, schedule: Q01DX009 (ip), vehicle: Klucel (hydroxypropylcellulose) (HPC)
[2] = dose: 100.0 mg/kg/injection, schedule: Q04DX003 (ip), vehicle: Klucel (hydroxypropylcellulose) (HPC)
[3] = dose: 200.0 mg/kg/injection, schedule: Q01DX009 (ip), vehicle: Klucel (hydroxypropylcellulose) (HPC)
[4] = dose: 200.0 mg/kg/injection, schedule: Q04DX003 (ip), vehicle: Klucel (hydroxypropylcellulose) (HPC)
[5] = dose: 400.0 mg/kg/injection, schedule: Q01DX009 (ip), vehicle: Klucel (hydroxypropylcellulose) (HPC)
[6] = dose: 400.0 mg/kg/injection, schedule: Q04DX003 (ip), vehicle: Klucel (hydroxypropylcellulose) (HPC)
[7] = dose: 50.0 mg/kg/injection, schedule: Q01DX009 (ip), vehicle: Klucel (hydroxypropylcellulose) (HPC)
[8] = dose: 100.0 mg/kg/injection, schedule: Q04DX002 (ip), vehicle: Klucel (hydroxypropylcellulose) (HPC)
[9] = dose: 400.0 mg/kg/injection, schedule: Q04DX002 (ip), vehicle: Klucel (hydroxypropylcellulose) (HPC)
[10] = dose: 100.0 mg/kg/injection, schedule: Q04DX003 (ip), vehicle: saline with Tween-80
[11] = dose: 200.0 mg/kg/injection, schedule: Q04DX003 (ip), vehicle: saline with Tween-80

Measured: T/C

NC(=S)N/N=C/c1cccc2ccccc12
inactive: dose: 100.0 mg/kg/injection, schedule: Q04DX002 (ip), vehicle: gum acacia 91 % of control | dose: 200.0 mg/kg/injection, schedule: Q04DX002 (ip), vehicle: gum acacia 98 % of control | dose: 400.0 mg/kg/injection, schedule: Q04DX002 (ip), vehicle: gum acacia 117 % of control

CC(=O)OC(OC(C)=O)c1ccc([N+](=O)[O-])c([N+](=O)[O-])c1
inactive: dose: 12.5 mg/kg/injection, schedule: Q01DX001 (ip), vehicle: carboxymethylcellulose (CMC) 97 % of control | dose: 25.0 mg/kg/injection, schedule: Q01DX001 (ip), vehicle: carboxymethylcellulose (CMC) 97 % of control | dose: 50.0 mg/kg/injection, schedule: Q01DX001 (ip), vehicle: carboxymethylcellulose (CMC) 94 % of control

O=C(NC(=O)C(Cl)Cl)Nc1ccc2c(c1)-c1ccccc1C2
inactive: dose: 100.0 mg/kg/injection, schedule: Q01DX001 (ip), vehicle: Klucel (hydroxypropylcellulose) (HPC) 87 % of control | [1] 96 % of control | [2] 92 % of control | dose: 200.0 mg/kg/injection, schedule: Q01DX001 (ip), vehicle: Klucel (hydroxypropylcellulose) (HPC) 90 % of control | [3] 94 % of control | [4] 92 % of control | dose: 400.0 mg/kg/injection, schedule: Q01DX001 (ip), vehicle: Klucel (hydroxypropylcellulose) (HPC) 92 % of control | [5] 100 % of control | [6] 88 % of control

COc1c(NC(=O)Nc2ccc(SC)cc2)cccc1[N+](=O)[O-]
inactive: [1] 89 % of control | [3] 98 % of control | [5] 93 % of control

C=CCc1c[nH]c(=S)[nH]c1=O.[Hg]
inactive: dose: 3.12 mg/kg/injection, schedule: Q01DX001 (ip), vehicle: Klucel (hydroxypropylcellulose) (HPC) 98 % of control | dose: 6.0 mg/kg/injection, schedule: Q01DX009 (ip), vehicle: Klucel (hydroxypropylcellulose) (HPC) 98 % of control | dose: 6.0 mg/kg/injection, schedule: Q04DX003 (ip), vehicle: Klucel (hydroxypropylcellulose) (HPC) 97 % of control | dose: 6.25 mg/kg/injection, schedule: Q01DX001 (ip), vehicle: Klucel (hydroxypropylcellulose) (HPC) 98 % of control | dose: 12.0 mg/kg/injection, schedule: Q01DX009 (ip), vehicle: Klucel (hydroxypropylcellulose) (HPC) 94 % of control | dose: 12.0 mg/kg/injection, schedule: Q04DX003 (ip), vehicle: Klucel (hydroxypropylcellulose) (HPC) 100 % of control | dose: 12.5 mg/kg/injection, schedule: Q01DX001 (ip), vehicle: Klucel (hydroxypropylcellulose) (HPC) 93 % of control and 96 % of control | dose: 50.0 mg/kg/injection, schedule: Q01DX001 (ip), vehicle: Klucel (hydroxypropylcellulose) (HPC) 93 % of control

CCCCCCCCCCCCCCCC(=O)NNC(C)C
inactive: dose: 25.0 mg/kg/injection, schedule: Q01DX009 (ip), vehicle: Klucel (hydroxypropylcellulose) (HPC) 94 % of control | dose: 25.0 mg/kg/injection, schedule: Q04DX003 (ip), vehicle: Klucel (hydroxypropylcellulose) (HPC) 94 % of control | [7] 95 % of control | dose: 50.0 mg/kg/injection, schedule: Q04DX003 (ip), vehicle: Klucel (hydroxypropylcellulose) (HPC) 91 % of control | [1] 86 % of control | [2] 105 % of control | [3] 91 % of control | [4] 89 % of control | [5] 92 % of control | [6] 89 % of control

CC/C=C(\C)C1(CCC)C(=O)NC(=O)NC1=O
inactive: dose: 75.0 mg/kg/injection, schedule: Q01DX001 (ip), vehicle: saline 102 % of control | dose: 150.0 mg/kg/injection, schedule: Q01DX001 (ip), vehicle: saline 107 % of control

CCCCCC(/C=N/N=C(N)N)=N\N=C(N)N
inactive: dose: 15.0 mg/kg/injection, schedule: Q01DX Z (ip), vehicle: carboxymethylcellulose (CMC) 98 % of control | dose: 30.0 mg/kg/injection, schedule: Q01DX Z (ip), vehicle: carboxymethylcellulose (CMC) 97 % of control | dose: 30.0 mg/kg/injection, schedule: Q01DX Z (oral), vehicle: carboxymethylcellulose (CMC) 98 % of control | dose: 60.0 mg/kg/injection, schedule: Q01DX Z (ip), vehicle: carboxymethylcellulose (CMC) 95 % of control | dose: 60.0 mg/kg/injection, schedule: Q01DX Z (oral), vehicle: carboxymethylcellulose (CMC) 87 % of control | dose: 120.0 mg/kg/injection, schedule: Q01DX Z (oral), vehicle: carboxymethylcellulose (CMC) 91 % of control | dose: 240.0 mg/kg/injection, schedule: Q01DX Z (oral), vehicle: carboxymethylcellulose (CMC) 95 % of control

CCOc1ccn(C2CCOC2=O)c(=O)n1 (centres undefined)
inactive: dose: 100.0 mg/kg/injection, schedule: Q01DX009 (ip), vehicle: saline 100 % of control | dose: 100.0 mg/kg/injection, schedule: Q04DX003 (ip), vehicle: alcohol 104 % of control | dose: 200.0 mg/kg/injection, schedule: Q01DX009 (ip), vehicle: saline 97 % of control | dose: 200.0 mg/kg/injection, schedule: Q04DX003 (ip), vehicle: alcohol 102 % of control | dose: 400.0 mg/kg/injection, schedule: Q01DX009 (ip), vehicle: saline 100 % of control | dose: 400.0 mg/kg/injection, schedule: Q04DX003 (ip), vehicle: alcohol 102 % of control

COC1OC(CCl)C(Cl)C(OS(=O)(=O)c2ccc(C)cc2)C1OS(=O)(=O)c1ccc(C)cc1 (centres undefined)
inactive: [8] 100 % of control | dose: 100.0 mg/kg/injection, schedule: Q04DX002 (ip), vehicle: saline with Tween-80 90 % of control | dose: 200.0 mg/kg/injection, schedule: Q04DX002 (ip), vehicle: saline with Tween-80 101 % of control | [9] 94 % of control | dose: 400.0 mg/kg/injection, schedule: Q04DX002 (ip), vehicle: saline with Tween-80 93 % of control

O=C(C=C(C(F)(F)F)C(F)(F)F)c1ccc(Cl)cc1
inactive: dose: 3.13 mg/kg/injection, schedule: Q01DX009 (ip), vehicle: saline with Tween-80 101 % of control | dose: 6.25 mg/kg/injection, schedule: Q01DX009 (ip), vehicle: saline with Tween-80 97 % of control | dose: 12.5 mg/kg/injection, schedule: Q01DX009 (ip), vehicle: saline with Tween-80 100 % of control | dose: 25.0 mg/kg/injection, schedule: Q01DX009 (ip), vehicle: saline with Tween-80 97 % of control and 101 % of control | dose: 50.0 mg/kg/injection, schedule: Q04DX003 (ip), vehicle: saline with Tween-80 91 % of control | [10] 86 % of control | [11] 86 % of control

CC(=O)Oc1cccc2c1C(=O)OC2=O
inactive: dose: 100.0 mg/kg/injection, schedule: Q01DX001 (ip), vehicle: saline with Tween-80 89 % of control | dose: 200.0 mg/kg/injection, schedule: Q01DX001 (ip), vehicle: saline with Tween-80 108 % of control

N#CCCCc1ccccc1
inactive: [7] 96 % of control | [1] 104 % of control | [3] 112 % of control

Cc1cc(CCCC(=O)O)c(C)s1
inactive: [10] 101 % of control | [11] 104 % of control | dose: 400.0 mg/kg/injection, schedule: Q04DX003 (ip), vehicle: saline with Tween-80 101 % of control

Nc1nc2c(ncn2-c2ccc(NS(=O)(=O)c3cccc(S(=O)(=O)F)c3)cc2)c(=O)[nH]1
inactive: dose: 75.0 mg/kg/injection, schedule: Q01DX001 (ip), vehicle: Klucel (hydroxypropylcellulose) (HPC) 97 % of control | dose: 300.0 mg/kg/injection, schedule: Q01DX001 (ip), vehicle: Klucel (hydroxypropylcellulose) (HPC) 88 % of control

COc1cccc(C2NC(=O)N3C(c4cccc(OC)c4)NC(=O)N23)c1 (centres undefined)
inactive: dose: 100.0 mg/kg/injection, schedule: Q01DX009 (ip), vehicle: gum acacia 98 % of control | dose: 100.0 mg/kg/injection, schedule: Q04DX003 (ip), vehicle: gum acacia 97 % of control | dose: 200.0 mg/kg/injection, schedule: Q01DX009 (ip), vehicle: gum acacia 91 % of control | dose: 200.0 mg/kg/injection, schedule: Q04DX003 (ip), vehicle: gum acacia 95 % of control | dose: 400.0 mg/kg/injection, schedule: Q01DX009 (ip), vehicle: gum acacia 91 % of control

CC(=O)CP(=O)(O)O
inactive: dose: 100.0 mg/kg/injection, schedule: Q04DX002 (ip), vehicle: saline 97 % of control | dose: 200.0 mg/kg/injection, schedule: Q04DX002 (ip), vehicle: saline 94 % of control | dose: 400.0 mg/kg/injection, schedule: Q04DX002 (ip), vehicle: saline 94 % of control

COCn1c2ccccc2c2nc(-c3ccncc3)nc(-c3ccncc3)c21
inactive: [8] 98 % of control | dose: 200.0 mg/kg/injection, schedule: Q04DX002 (ip), vehicle: Klucel (hydroxypropylcellulose) (HPC) 98 % of control | [9] 95 % of control
